Values of other authors, collected in patent US20240091148A1, “EUTECTIC SOLVENTS COMPRISING PHARMACEUTICAL AGENTS, AND METHODS OF MAKING AND USE THEREOF” (Novilla Pharmaceuticals, Inc., priority 2018, published 2024).

Conditions: values stated in the description, no method or source given

| SMILES | pKa |
| --- | --- |
| CCCC1O[C@@H]2C[C@H]3[C@@H]4CCC5=CC(=O)C=C[C@]5(C)[C@H]4[C@@H](O)C[C@]3(C)[C@]2(C(=O)CO)O1 (stereo partly drawn) [budesonide] | 13-15 |
| CN(C)CCOC(C)(c1ccccc1)c1ccccn1 (stereo not drawn) [doxylamine] | 8.7-9.2 |
| CC(C)C(=O)OCC(=O)[C@@]12O[C@H](C3CCCCC3)O[C@@H]1C[C@H]1[C@@H]3CCC4=CC(=O)C=C[C@]4(C)[C@H]3[C@@H](O)C[C@@]12C [ciclesonide] | 14-16 |
| C[C@@H]1C[C@H]2[C@@H]3C[C@H](F)C4=CC(=O)C=C[C@]4(C)[C@@]3(F)[C@@H](O)C[C@]2(C)[C@@]1(O)C(=O)SCF [fluticasone] | 12-14 |
| C[C@H]1C[C@H]2[C@@H]3CCC4=CC(=O)C=C[C@]4(C)[C@@]3(Cl)[C@@H](O)C[C@]2(C)[C@@]1(O)C(=O)CO [beclomethasone] | 13-16 |
| C[C@@H]1C[C@H]2[C@@H]3CCC4=CC(=O)C=C[C@]4(C)[C@@]3(Cl)[C@@H](O)C[C@]2(C)[C@@]1(O)C(=O)CCl [mometasone] | 12-13 |
